Test results reported in patent US9517228B2, “Cannabinoid receptor antagonists/inverse agonists useful for treating metabolic disorders, including obesity and diabetes” (Jenrin Discovery, priority 2012, dated 2016).

biological target: CB1R (Mus musculus (Mouse), UniProt P47746); assay: CB1R competition displacement binding with [3H]CP-55,940; details: [3H]CP-55,940 radioligand, crude membranes from mouse brain, triplicates; read-out: CB1 IC50
Experimental: Compound binding to CB1R was assessed in competition displacement assays using [3H]CP-55,940 as the radioligand and crude membranes from mouse brain. See Tam, J., Vemuri, V. K., Liu, J., Batkai, S., Mukhopadhyay, B., Godlewski, G., Osei-Hyiaman, D., Ohnuma, S., Ambudkar, S. V., Pickel, J., et al., J. Clin. Invest. 2010, 120, 2953-2966. All data were in triplicates with Ki values determined from three independent experiments.

Sequence of CB1R (P47746 whole entry): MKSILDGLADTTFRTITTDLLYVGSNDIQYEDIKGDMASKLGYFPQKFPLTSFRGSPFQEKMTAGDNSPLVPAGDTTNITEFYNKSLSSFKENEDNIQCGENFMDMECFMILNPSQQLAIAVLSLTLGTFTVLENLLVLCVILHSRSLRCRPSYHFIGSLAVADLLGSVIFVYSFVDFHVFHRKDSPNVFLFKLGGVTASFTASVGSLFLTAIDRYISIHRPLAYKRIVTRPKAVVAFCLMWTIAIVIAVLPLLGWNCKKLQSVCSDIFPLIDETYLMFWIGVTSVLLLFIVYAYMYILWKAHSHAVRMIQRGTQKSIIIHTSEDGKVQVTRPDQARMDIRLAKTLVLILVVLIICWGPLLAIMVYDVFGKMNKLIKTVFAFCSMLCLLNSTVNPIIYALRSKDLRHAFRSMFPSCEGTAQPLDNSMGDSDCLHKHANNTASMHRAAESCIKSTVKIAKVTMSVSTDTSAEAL

| Structure (SMILES) | IC50 |
| --- | --- |
| CC(C)[C@H](N/C(=N\S(=O)(=O)c1ccc(Cl)cc1)N1C[C@H](c2ccccc2)C(c2ccc(Cl)cc2)=N1)C(N)=O [Example 4] | < 100 nM |
| NC(=O)CN/C(=N\S(=O)(=O)c1ccc(Cl)cc1)N1C[C@H](c2ccccc2)C(c2ccc(Cl)cc2)=N1 [Example 1] | < 100 nM |
| NC(=O)CN/C(=N\S(=O)(=O)c1ccc(Cl)cc1)N1C[C@@H](c2ccccc2)C(c2ccc(Cl)cc2)=N1 [Example 1a] | > 1000 nM |
| CC(C)[C@H](N/C(=N\S(=O)(=O)c1ccc(Cl)cc1)N1C[C@@H](c2ccccc2)C(c2ccc(Cl)cc2)=N1)C(N)=O [Example 4a] | > 1000 nM |

Second part, the molecule after the results:

| IC50 | Structure (SMILES) |
| --- | --- |
| < 100 nM | NC(=O)[C@H](CO)N/C(=N\S(=O)(=O)c1ccc(Cl)cc1)N1C[C@H](c2ccccc2)C(c2ccc(Cl)cc2)=N1 [Example 3] |
| < 100 nM | C[C@@H](O)[C@H](N/C(=N\S(=O)(=O)c1ccc(Cl)cc1)N1C[C@H](c2ccccc2)C(c2ccc(Cl)cc2)=N1)C(N)=O [Example 2, (2S,3R)-2-((S)-3-(4-chlorophenyl)-N′-((4-chlorophenyl)sulfonyl)-4-phenyl-4,5-dihydro-1H-pyrazole-1-carboximidamido)-3-hydroxybutanamide] |
| 500 to 1000 nM | NC(=O)[C@H](CO)N/C(=N\S(=O)(=O)c1ccc(Cl)cc1)N1C[C@@H](c2ccccc2)C(c2ccc(Cl)cc2)=N1 [Example 3a] |
| > 1000 nM | C[C@@H](O)[C@H](N/C(=N\S(=O)(=O)c1ccc(Cl)cc1)N1C[C@@H](c2ccccc2)C(c2ccc(Cl)cc2)=N1)C(N)=O [Example 2a, (2S,3R)-2-((R)-3-(4-chlorophenyl)-N′-((4-chlorophenyl)sulfonyl)-4-phenyl-4,5-dihydro-1H-pyrazole-1-carboximidamido)-3-hydroxybutanamide] |

test system: not given; assay: not given; details: type 2 diabetes patients not on other anti-diabetic medications, six months of treatment, baseline value 7.9; cited from earlier work

| Structure (SMILES) | HbA1c levels lowered |
| --- | --- |
| Cc1c(C(=O)NN2CCCCC2)nn(-c2ccc(Cl)cc2Cl)c1-c1ccc(Cl)cc1 [rimonabant] | 0.8% |
